Key:
[1] = Solubility determination in oil (cottonseed oil, sesame oil); conditions: heating temp. 60 °C, obs. temp. 40 °C
Protocol: A known amount of test substance (˜40 mg) was weighed into the vial, 100 μL of oil was added and heated to 60° C. and then system was slurried to reach equilibrium. […] Extra oil was added into the vial once compound precipitated out and then the system was re-equilibrated at 1000 rpm at room temperature (25° C.). Final concentration was determined by HPLC method as described below in Table 6a and 6b.

[2] = Equilibrium solubility in water; conditions: obs. temp. 40 °C
[3] = Plasma stability assay, rat plasma; type: in vitro ADME; conditions: 37° C., 10 μM
[4] = Plasma stability assay, dog plasma; type: in vitro ADME; conditions: 37° C., 2 μM
Protocol: (§1) Plasma stability determination of the test compounds in rat, dog, cynomolgus monkey and human plasma is performed using HPLC-MS. For rat, incubations are carried out in 96-well polypropylene plates in 5 aliquots of 70 μL each (one for each time point). […] Five time points are analyzed (0, 15, 120, 480 and 1440 min). […] All incubations are performed in duplicates. The samples are analyzed by HPLC-MS. The percentage of parent compound remaining after incubation in plasma is determined.

[5] = Plasma stability assay, monkey plasma; type: in vitro ADME, cynomolgus monkey; conditions: 37° C., 2 μM
Protocol: as §1

[6] = Plasma stability assay, human plasma; type: in vitro ADME; conditions: 37° C., 2 μM
Protocol: as §1

[7] = Liver S9 fraction stability, dog; type: in vitro ADME; conditions: 1.0 mg/ml S9 protein, 2 μM, 37° C.
Protocol: (§2) Liver S9 fraction stability determination of the test compounds in dog, cynomolgus monkey and human is performed using HPLC-MS. Test compound (2 μM, 0.1% DMSO, 1% Methanol final concentration) was assessed for stability in a 50 μl phosphate buffer containing 1.0 mg/ml S9 protein from each of the three species and 5 mM D-saccharic acid-1, 4-lactone. Samples were incubated at 37° C. for 60 minutes and the % compound remaining was assessed.

[8] = Liver S9 fraction stability, monkey; type: in vitro ADME, cynomolgus monkey; conditions: 1.0 mg/ml S9 protein, 2 μM, 37° C.
Protocol: as §2

[9] = Liver S9 fraction stability, human; type: in vitro ADME; conditions: 1.0 mg/ml S9 protein, 2 μM, 37° C.
Protocol: as §2

DOR = target: T1, DOR (Homo sapiens, UniProt P41143); experiment: Opioid receptor binding assay, DOR ([3H]-DADLE); conditions: DOR, MaxDose 10000 nM
T1 construct: expressed in transfected cells; membranes prepared from them
T1 sequence (P41143 whole entry): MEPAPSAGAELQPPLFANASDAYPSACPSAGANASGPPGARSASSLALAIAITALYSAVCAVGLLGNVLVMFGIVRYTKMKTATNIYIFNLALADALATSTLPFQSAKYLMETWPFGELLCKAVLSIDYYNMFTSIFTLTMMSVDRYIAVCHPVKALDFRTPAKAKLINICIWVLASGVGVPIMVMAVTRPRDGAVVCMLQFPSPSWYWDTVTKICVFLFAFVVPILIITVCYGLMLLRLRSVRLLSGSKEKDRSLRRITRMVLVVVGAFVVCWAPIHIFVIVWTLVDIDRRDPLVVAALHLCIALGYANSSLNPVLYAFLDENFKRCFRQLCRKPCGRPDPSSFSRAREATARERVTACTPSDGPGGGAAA

KOR = target: T2, KOR (Homo sapiens, UniProt P41145); experiment: Opioid receptor binding assay, KOR ([3H]Diprenorphine); conditions: KOR, MaxDose 10000 nM
T2 construct: expressed in transfected cells; membranes prepared from them
T2 sequence (P41145 whole entry): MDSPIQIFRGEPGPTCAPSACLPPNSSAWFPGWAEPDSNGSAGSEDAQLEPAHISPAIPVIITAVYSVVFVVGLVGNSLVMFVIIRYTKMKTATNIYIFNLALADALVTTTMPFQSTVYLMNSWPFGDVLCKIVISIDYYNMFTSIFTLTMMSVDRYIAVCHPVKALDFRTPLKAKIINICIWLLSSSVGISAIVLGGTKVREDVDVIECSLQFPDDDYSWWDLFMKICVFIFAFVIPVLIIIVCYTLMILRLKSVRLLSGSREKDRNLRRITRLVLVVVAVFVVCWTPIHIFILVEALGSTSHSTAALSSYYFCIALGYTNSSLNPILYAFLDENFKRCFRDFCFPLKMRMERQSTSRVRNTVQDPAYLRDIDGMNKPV

MOR = target: T3, MOR (Homo sapiens, UniProt P35372); experiment: Opioid receptor binding assay, MOR ([3H]DAMGO); conditions: MOR, MaxDose 10000 nM
T3 construct: expressed in transfected cells; membranes prepared from them
T3 sequence (P35372 whole entry): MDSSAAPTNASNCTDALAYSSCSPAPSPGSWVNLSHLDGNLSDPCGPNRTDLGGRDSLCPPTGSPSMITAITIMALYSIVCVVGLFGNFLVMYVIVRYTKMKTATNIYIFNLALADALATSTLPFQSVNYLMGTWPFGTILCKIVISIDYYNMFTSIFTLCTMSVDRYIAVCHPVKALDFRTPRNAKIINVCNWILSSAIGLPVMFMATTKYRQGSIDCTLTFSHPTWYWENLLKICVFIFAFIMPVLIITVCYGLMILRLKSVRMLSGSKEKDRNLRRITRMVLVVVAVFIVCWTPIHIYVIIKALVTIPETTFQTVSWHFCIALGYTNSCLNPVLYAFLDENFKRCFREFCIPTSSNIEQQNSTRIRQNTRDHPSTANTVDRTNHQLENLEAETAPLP

[10] = Rat pharmacokinetic studies, intramuscular; type: in vivo, male Sprague Dawley Rats; conditions: rat IM
Protocol: The purpose of this study is to determine the pharmacokinetics of test compounds in plasma, following intramuscular administration to male Sprague Dawley Rats (n=3, unless otherwise specified).
The dose formulation of 400 mg base equivalents/ml in sesame oil+1% benzyl alcohol (unless otherwise specified) was administered by intramuscular injection. The dose volume was determined by the animals' body weight determined on the morning of dosing day.
Each collected blood sample was centrifuged for 4 minutes at 4° C. and 10000 rpm for plasma collection. Plasma was collected and transferred into a pre-labeled PP tube in dry ice at each time point and precipitated immediately using ACN at a ratio of 1:4 (plasma:ACN). Centrifuged again (10 minutes, 12000 rpm) and obtain the supernatant.
After terminal collection, all supernatant was stored at approximately −80° C. until bioanalysis.
LC-MS/MS methods for the quantitative determination of test compound in biological matrix were developed. […] The sample analysis was performed concurrently with a set of calibration standards and two sets of QC samples using the LC-MS/MS method.
Plasma concentration versus time data was analyzed by non-compartmental approaches using the Phoenix WinNonlin 6.3 software program. Cmax, Tmax, T1/2, AUC(0-t), AUC(0-inf), MRT(0-t), MRT(0-inf) and graphs of plasma concentration versus time profile were prepared.

[11] = 80 mg/kg, Cottonseed + 1% Benzyl Alcohol
[12] = 123 mg/kg, Cottonseed oil + 1% Benzyl Alcohol

C=C1CC[C@@]2(O)[C@H]3Cc4ccc(O)c5c4[C@@]2(CCN3CC2CC2)[C@H]1O5 [61 (Nalmefene)]
Approximate Solubility (mg/mL) in Excipient: Cottonseed oil ([1]; Cottonseed oil): <25.0 mg/mL
Approximate Solubility (mg/mL) in Excipient: Ethanol ([1]; Ethanol): 102 to 137 mg/mL
Approximate Solubility (mg/mL) in Excipient: Sesame oil ([1]; Sesame oil): <25.5 mg/mL
Equilibrium solubility (mg/mL) Water ([2]; heating temp. 60 °C): 0.025 mg/mL

C=C1CC[C@@]2(O)C3Cc4ccc(OCOC(=O)OCCCCCCCCCCCC)c5c4[C@@]2(CCN3CC2CC2)[C@H]1O5 [Compound 24, (((4aS,7aS,12bS)-3-(cyclopropylmethyl)-4a-hydroxy-7-methylene-2,3,4,4a,5,6,7,7a-octahydro-1H-4,12-methanobenzofuro[3,2-e]isoquinolin-9-yl)oxy)methyl dodecyl carbonate]
% remaining at time point in minutes, 0 min ([3]; 0 min): 100%
% remaining at time point in minutes, 15 min ([3]; 15 min): 32%
% remaining at time point in minutes, 120 min ([3]; 120 min): 11.8%
% remaining at time point in minutes, 480 min ([3]; 480 min): 8.2%
% remaining at time point in minutes, 1440 min ([3]; 1440 min): 3%
% remaining at time point in minutes, 0 min ([4]; 0 min): 100%
% remaining at time point in minutes, 15 min ([4]; 15 min (as headed)): 94.7%
% remaining at time point in minutes, 120 min ([4]; 120 min (as headed)): 104.5%
% remaining at time point in minutes, 480 min ([4]; 480 min (as headed)): 115.7%
% remaining at time point in minutes, 1440 min ([4]; 1440 min (as headed)): 116.2%
% remaining at time point in minutes, 0 min ([5]; 0 min): 100%
% remaining at time point in minutes, 15 min ([5]; 15 min (as headed)): 90.7%
% remaining at time point in minutes, 120 min ([5]; 120 min (as headed)): 93.5%
% remaining at time point in minutes, 480 min ([5]; 480 min (as headed)): 96.2%
% remaining at time point in minutes, 1440 min ([5]; 1440 min (as headed)): 97.8%
% remaining at time point in minutes, 0 min ([6]; 0 min): 100%
% remaining at time point in minutes, 15 min ([6]; 15 min (as headed)): 94%
% remaining at time point in minutes, 120 min ([6]; 120 min (as headed)): 102.3%
% remaining at time point in minutes, 480 min ([6]; 480 min (as headed)): 105.3%
% remaining at time point in minutes, 1440 min ([6]; 1440 min (as headed)): 112.5%
Liver S9 Fraction Stability % remaining at 60 minutes, Dog [7]: 3.6%
Liver S9 Fraction Stability % remaining at 60 minutes, Monkey [8]: 3%
Liver S9 Fraction Stability % remaining at 60 minutes, Human [9]: 3.5%
%Inh@MaxDose (DOR): 48%
%Inh@MaxDose (KOR): 82.9%
%Inh@MaxDose (MOR): 88.7%
AUC0-inf (ng · h/mL) prodrug [10, 11]: 147 ng·h/mL
Half-life t1/2 (hour) prodrug [10, 11]: 398 h
AUC0-inf (ng · h/mL) prodrug [10, 12]: 547 ng·h/mL
Half-life t1/2 (hour) prodrug [10, 12]: 717 h
AUC0-inf (ng · h/mL) prodrug ([10]; 165 mg/kg, Cottonseed oil + 1% Benzyl Alcohol): 453 ng·h/mL

O=C(CCC1CCCC1)Oc1ccc2c3c1O[C@H]1C(=O)CC[C@@]4(O)C(C2)N(CC2CC2)CC[C@]314 [Compound 43, (4aS,7aR,12bS)-3-(cyclopropylmethyl)-4a-hydroxy-7-oxo-2,3,4,4a,5,6,7,7a-octahydro-1H-4,12-methanobenzofuro[3,2-e]isoquinolin-9-yl 3-cyclopentylpropanoate]
Equilibrium solubility (mg/mL) Water ([2]; heating temp. 40 °C): 0.048 mg/mL

— patent publication US10525055B2, “Opioid receptor antagonist prodrugs” (Nirsum Laboratories, Inc., priority 2017, dated 2020)
